The source of these data is patent US11660279B2, “Therapeutic agents for treating restless leg syndrome” (INTRABIO LTD, priority 2018, dated 2023).

The subject of experiment [1] is patient with RLS and McArdle myopathy. Briefly: Fatigue Severity Scale in patient case study. The class given is in vivo, human. As to conditions: Patient 3; scale 9 (minimum) to 63 (maximum); declined from 53. The source says:
(§1) The patient in this case study was a person showing mild proximal weakness of the upper and lower limbs slowly progressive. The patient had been diagnosed (genetically confirmed) with McArdle myopathy about 16 years ago. Upon consultation, they reported no sensory symptoms but complained about a severe fatigue and reduced stamina. The patient further reported a restless leg syndrome at night and during resting periods of the day, occurring over the course of the last 12 years. […] Serum creatine kinase activity was mildly elevated at 200 IU/L; however, the patient had 5 episodes of rhabdomyolysis during the past 20 years. Repeated iron measurements and all additional lab investigations were normal. The patient was evaluated using the RLS-DI and the patient's IRLS was 34, and thus a severe RLS was diagnosed. The patient was started on therapy with acetyl-DL-leucine at a dose of 3 g per day for the first week, followed by a dose of 5 g per day for the second week onwards. Within 21 days on acetyl-DL-leucine, the IRLS dropped to 20, and after another 10 weeks, the IRLS declined to 10. Continuation of treatment over more than 30 weeks stabilized the IRLS score at 10. In addition, the patient's fatigue declined (Fatigue Severit Scale: 9 (minimum) to 63 (maximum)) from 53 to 28.

For experiment [2], the system named is patients with restless leg syndrome (RLS). Briefly: International Restless Legs Syndrome Rating Scale score (IRLS) in patient case studies. Format: in vivo, human. On the set-up: key: IRLS score, 0 (no symptoms) to 40; >30 very severe.
Description: RLS severity varies and can be measured using one or more of several scales. A widely reported rating scale known as the International Restless Legs Syndrome Study Group Rating Scale (“IRLS”) was developed by the International Restless Legs Syndrome Study Group (“IRLSSG”) (Walters et al., Validation of the 15 International Restless Legs Syndrome Study Group rating scale for restless legs syndrome. Sleep medicine. 2003 Apr 01; 4(2)1 21-32). The IRLS is a 10-item scale with scores ranging from 0 (no symptoms) to 40. Scores>30 are considered very severe, severe (Score 21-30), moderate (scores 11-20) and […], mild. Use of the scale is common for clinical assessment, research and therapeutic trials with RLS.
Serum creatine kinase activity was only mildly elevated at up to 400 IU/L. The patient was evaluated using the RLS diagnostic index (RLS-DI) (see Walters et al., Sleep Med 2003; 4(2):121-132;). The patient's International Restless Legs Syndrome Rating Scale score (IRLS) was 36, and thus a severe RLS was diagnosed. The patient was started on therapy with acetyl-DL-leucine at a dose of 3 g per day for the first week, followed by a dose of 5 g per day for the second week onwards. Within 14 days on acetyl-DL-leucine, the IRLS dropped to 26, and after another 5 weeks, the IRLS declined to 9. […] Re-introduction of the treatment re-declined the score to 8 after 2 weeks. Continuation of treatment over more than 22 weeks stabilized the IRLS score at 8.
(§2) The patient in this case study was a person showing proximal weakness of the lower limb. […] Upon consultation, they reported no sensory symptoms but complained of a restless leg syndrome at night and during resting periods of the day, occurring over the course of the last eight years. […] Serum creatine kinase activity was mildly elevated at 300 IU/L. Iron measurements and all additional lab investigations were normal. The patient was evaluated using the RLS-DI and the patient's IRLS was 32, and thus a moderate to severe RLS was diagnosed. The patient was started on therapy with acetyl-DL-leucine at a dose of 3 g per day for the first week, followed by a dose of 5 g per day for the second week onwards. Within 14 days on acetyl-DL-leucine, the IRLS dropped to 22, and after another 5 weeks, the IRLS declined to 7. Continuation of treatment over more than 28 weeks stabilized the IRLS score at 8.
as §1
The patient in this case study was a person showing symptoms of RLS and with RLS of unknown etiology. […]

Experiment [3] deals with patients with cerebellar ataxia / Niemann-Pick Type C. The note with it: cited from earlier work.
Experiment [4] relates to patients with restless leg syndrome (RLS). Briefly: Symptom relief of RLS by pre-treatment (patient history). Format: in vivo, human. How it is done:
as §2, §1
The patient in this case study was a person showing symptoms of RLS and with RLS of unknown etiology. Upon consultation, they reported no sensory symptoms but complained of a restless leg syndrome at night and during resting periods of the day, occurring over the course of the at least 15 years. […] Iron measurements and all additional lab investigations were normal. The patient was evaluated using the RLS-DI and the patient's IRLS was 32, and thus a moderate to severe RLS was diagnosed. The patient was started on therapy with acetyl-DL-leucine at a dose of 3 g per day for the first week, followed by a dose of 5 g per day for the second week onwards. Within 14 days on acetyl-DL-leucine, the IRLS dropped to 8, and after another 2 weeks, the IRLS declined to 6. Continuation of treatment over more than 4 weeks stabilized the IRLS score at 6.

Experiment [5] has as its system rat model of an acute unilateral labyrinthectomy. The note with it: Zwergal 2016, Gunther 2015; cited from earlier work.
Setting [6] is: Patient 2, before acetyl-DL-leucine.
Setting [7] is: Patient 3, before acetyl-DL-leucine.
Where [8] appears, read: Patient 4, before acetyl-DL-leucine.

The structures appear in SMILES notation.

Consider `CC(=O)NC(CC(C)C)C(=O)O` (racemic) [acetyl-DL-leucine], for which the “Fatigue Severit Scale” value in experiment [1] amounted to 28. For the same molecule, the IRLS was 9 in experiment [2] (Patient 1, baseline 36, after another 5 weeks on 5 g per day); 26 in experiment [2] (Patient 1, baseline IRLS 36, 3 g per day first week then 5 g per day, within 14 days); 28 in experiment [2] (Patient 1, after interruption of 4 weeks of the treatment after week 12); 8 in experiment [2] (Patient 1, continuation of treatment over more than 22 weeks); 8 in experiment [2] (Patient 1, re-introduction of the treatment, after 2 weeks); 7 in experiment [2] (Patient 2, baseline 32, after another 5 weeks). Moreover, the IRLS is 22 in experiment [2] (Patient 2, baseline IRLS 32, 3 g per day first week then 5 g per day, within 14 days); 8 in experiment [2] (Patient 2, continuation of treatment over more than 28 weeks); 10 in experiment [2] (Patient 3, baseline 34, after another 10 weeks); 20 in experiment [2] (Patient 3, baseline IRLS 34, 3 g per day first week then 5 g per day, within 21 days); 10 in experiment [2] (Patient 3, continuation of treatment over more than 30 weeks); 6 in experiment [2] (Patient 4, baseline 32, after another 2 weeks). Further, the IRLS in experiment [2] (Patient 4, baseline IRLS 32, 3 g per day first week then 5 g per day, within 14 days) came out at 8; in experiment [2] (Patient 4, continuation of treatment over more than 4 weeks), 6. Moreover, in experiment [3] (PET study in patients with ataxia, Becker-Bense et al. (2015)), the “brain metabolism (PET)” value is “increased metabolism in the midbrain and lower brainstem in responders”. In experiment [3] (another case series, Pelz et al. (2015)), the cerebellar ataxia benefit entry is reported as “did not find benefit”. Besides, in experiment [3] (case series with cerebellar patients, Strupp et al. (2013)), the cerebellar ataxia symptoms result is reported as “symptomatic improvement of cerebellar ataxia”. The ataxia symptoms result in experiment [3] (one-month study, 12 patients with Niemann-Pick Type C, Bremova et al. (2015)) is reported as “symptomatic improvement of ataxia was shown”. In experiment [3] (quantitative gait analysis, patients with cerebellar ataxia, Schniepp et al. (2015)), the temporal gait variability entry was “improved temporal gait variability”.
For the molecule `N[C@@H](Cc1ccc(O)c(O)c1)C(=O)O` [L-dopa], the “RLS symptom relief by pre-treatment” value in experiment [4] (setting [6]) is given as “without sustained symptom relief”; in experiment [4] (setting [7]), “without sustained symptom relief”; in experiment [4] (setting [8]), “without sustained relief”.
For `CC(=O)N[C@@H](CC(C)C)C(=O)O` [N-acetyl-L-leucine], the postural compensation entry in experiment [5] was “significant effect”.
Consider `CC(C)C[C@H](CN)CC(=O)O` [pregabaline], for which the figures for the “RLS symptom relief by pre-treatment” value in experiment [4] (setting [6]), in experiment [4] (setting [7]) and in experiment [4] (setting [8]) were “without sustained symptom relief”, “without sustained symptom relief” and “without sustained relief”, respectively.
